Assay results as given in patent publication US11053204B2, “Pyrimidinyloxy benzene derivatives as herbicides” (FMC Corporation, priority 2015, dated 2021).

What was measured:
Assay type in all cases: in vivo
[1] = system: oat, wild (wild oat Avena fatua); assay: Test C postemergence, plant response rating; details: for Oat, Wild plant response rating: scale 0 to 100 (0 no effect, 100 complete control)
Method in brief: (§1)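 Pre-emergence: seeds sown in loam soil–sand blend or silt loam and sprayed with test chemicals in a non-phytotoxic solvent mixture with surfactant. Post-emergence: plants 2 to 18 cm (1- to 4-leaf stage) in peat-based potting medium, same formulation. Greenhouse 13 to 15 d; visual rating 0 (no effect) to 100 (complete control) versus controls.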

[2] = system: waterhemp (common waterhemp, Amaranthus rudis); assay: Test C postemergence, plant response rating
Method in brief: as §1

[3] = system: velvetleaf (Abutilon theophrasti); assay: Test C postemergence, plant response rating
Method in brief: as §1

[4] = system: ryegrass, Italian (Italian ryegrass, Lolium multiflorum); assay: Test C postemergence, plant response rating; details: for Ryegrass, Italian plant response rating: scale 0 to 100 (0 no effect, 100 complete control)
Method in brief: as §1

[5] = system: chickweed (common chickweed, Stellaria media); assay: Test C postemergence, plant response rating; details: for Chickweed plant response rating: scale 0 to 100 (0 no effect, 100 complete control)
Method in brief: as §1

[6] = system: ragweed (common ragweed, Ambrosia elatior); assay: Test C postemergence, plant response rating; details: for Ragweed plant response rating: scale 0 to 100 (0 no effect, 100 complete control)
Method in brief: as §1

[7] = system: lambsquarters (Chenopodium album); assay: Test C postemergence, plant response rating; details: for Lambsquarters plant response rating: scale 0 to 100 (0 no effect, 100 complete control)
Method in brief: as §1

[8] = system: foxtail, giant (giant foxtail, Setaria faberii); assay: Test C postemergence, plant response rating; details: for Foxtail, Giant plant response rating: scale 0 to 100 (0 no effect, 100 complete control)
Method in brief: as §1

soybean (Glycine max) = assay: Test C postemergence, plant response rating; details: for Soybean plant response rating: scale 0 to 100 (0 no effect, 100 complete control)
Method in brief: as §1

[9] = system: Italian ryegrass (Lolium multiflorum); assay: Test A postemergence, visual injury rating; details: 0 to 100 scale, 0 is no effect, 100 is complete control, approximately 10 days
Method in brief: (§2)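 Scoring: eye-based comparison with untreated controls, 0 for no effect through 100 for complete control, at about day 10. Treatments: directed soil spray preemergence; foliar spray postemergence on 2–10 cm plants at the one- to two-leaf stage. Medium: loam soil with sand.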

[10] = system: wheat (Triticum aestivum); assay: Test A postemergence, visual injury rating; details: 0 to 100 scale, 0 is no effect, 100 is complete control, approximately 10 days
Method in brief: as §2

corn (Zea mays) = assay: Test A postemergence, visual injury rating; details: 0 is no effect, 100 is complete control
Method in brief: as §2

[11] = system: galium (catchweed bedstraw, Galium aparine); assay: Test A postemergence, visual injury rating; details: 0 is no effect, 100 is complete control
Method in brief: as §2

[12] = system: giant foxtail (Setaria faberii); assay: Test A postemergence, visual injury rating; details: 0 is no effect, 100 is complete control
Method in brief: as §2

[13] = system: barnyardgrass (Echinochloa crus-galli); assay: Test A postemergence, visual injury rating; details: 0 is no effect, 100 is complete control
Method in brief: as §2

[14] = system: ragweed (common ragweed, Ambrosia elatior); assay: Test A postemergence, visual injury rating; details: 0 to 100 scale, 0 is no effect, 100 is complete control, approximately 10 days
Method in brief: as §2

kochia (Kochia scoparia) = assay: Test A postemergence, visual injury rating; details: 0 to 100 scale, 0 is no effect, 100 is complete control, approximately 10 days
Method in brief: as §2

[15] = system: pigweed (Amaranthus retroflexus); assay: Test A postemergence, visual injury rating; details: 0 to 100 scale, 0 is no effect, 100 is complete control, approximately 10 days
Method in brief: as §2

[16] = system: blackgrass (Alopecurus myosuroides); assay: Test A postemergence, visual injury rating; details: 0 is no effect, 100 is complete control
Method in brief: as §2

[17] = 125 g ai/ha, scale 0 to 100 (0 no effect, 100 complete control)
[18] = 31 g ai/ha, 0 to 100 scale, approximately 10 days

O=C(CCCCC(F)(F)F)c1c(Br)cccc1Oc1ncc(Cl)cn1 [Compound 82]
Plant response rating, Oat, Wild ([1]; 16 g ai/ha, scale of 0 to 100): 25
Plant response rating, Oat, Wild ([1]; 31 g ai/ha, scale 0 to 100): 40
Oat, Wild plant response rating ([1]; 62 g ai/ha): 40
Oat, Wild plant response rating ([1]; 125 g ai/ha): 50
Plant response rating, Waterhemp ([2]; 16 g ai/ha, scale of 0 to 100): 65
Plant response rating, Waterhemp ([2]; 31 g ai/ha, scale 0 to 100): 95
Waterhemp plant response rating [2, 17]: 95
Plant response rating, Velvetleaf ([3]; 16 g ai/ha, scale of 0 to 100): 35
Plant response rating, Velvetleaf ([3]; 31 g ai/ha, scale 0 to 100): 45
Velvetleaf plant response rating [3, 17]: 75
Plant response rating, Ryegrass, Italian ([4]; 16 g ai/ha, scale of 0 to 100): 5
Plant response rating, Ryegrass, Italian ([4]; 31 g ai/ha, scale 0 to 100): 15
Ryegrass, Italian plant response rating ([4]; 62 g ai/ha): 20
Ryegrass, Italian plant response rating ([4]; 125 g ai/ha): 25
Plant response rating, Chickweed ([5]; 16 g ai/ha, scale of 0 to 100): 55
Plant response rating, Chickweed ([5]; 31 g ai/ha, scale 0 to 100): 85
Chickweed plant response rating ([5]; 62 g ai/ha): 90
Chickweed plant response rating ([5]; 125 g ai/ha): 90
Plant response rating, Ragweed ([6]; 16 g ai/ha, scale of 0 to 100): 40
Plant response rating, Ragweed ([6]; 31 g ai/ha, scale 0 to 100): 35
Ragweed plant response rating ([6]; 62 g ai/ha): 60
Ragweed plant response rating ([6]; 125 g ai/ha): 55
Plant response rating, Lambsquarters ([7]; 16 g ai/ha, scale of 0 to 100): 70
Plant response rating, Lambsquarters ([7]; 31 g ai/ha, scale 0 to 100): 75
Lambsquarters plant response rating ([7]; 62 g ai/ha): 85
Lambsquarters plant response rating ([7]; 125 g ai/ha): 90
Plant response rating, Foxtail, Giant ([8]; 16 g ai/ha, scale of 0 to 100): 10
Plant response rating, Foxtail, Giant ([8]; 31 g ai/ha, scale 0 to 100): 10
Foxtail, Giant plant response rating ([8]; 62 g ai/ha): 10
Foxtail, Giant plant response rating ([8]; 125 g ai/ha): 20
Plant response rating, Soybean (soybean (Glycine max); 16 g ai/ha, scale of 0 to 100): 25
Plant response rating, Soybean (soybean (Glycine max); 31 g ai/ha, scale 0 to 100): 60
Soybean plant response rating (soybean (Glycine max); 62 g ai/ha): 35
Soybean plant response rating (soybean (Glycine max); 125 g ai/ha): 40
Ryegrass, Italian plant response rating ([9]; 31 g ai/ha): 40
Ryegrass, Italian plant response rating ([9]; 125 g ai/ha): 60
Wheat plant response rating ([10]; 31 g ai/ha): 10
Wheat plant response rating ([10]; 125 g ai/ha): 30
Corn plant response rating (corn (Zea mays); [18]): 20
Corn plant response rating (0 to 100 scale) (corn (Zea mays); 125 g ai/ha): 30
Galium plant response rating [11, 18]: 90
Galium plant response rating (0 to 100 scale) ([11]; 125 g ai/ha): 100
Foxtail, Giant plant response rating [12, 18]: 30
Foxtail, Giant plant response rating (0 to 100 scale) ([12]; 125 g ai/ha): 100
Barnyardgrass plant response rating [13, 18]: 30
Barnyardgrass plant response rating (0 to 100 scale) ([13]; 125 g ai/ha): 100
Ragweed plant response rating ([14]; 31 g ai/ha): 40
Ragweed plant response rating ([14]; 125 g ai/ha): 40
Kochia plant response rating (kochia (Kochia scoparia); 31 g ai/ha): 80
Kochia plant response rating (kochia (Kochia scoparia); 125 g ai/ha): 100
Pigweed plant response rating ([15]; 31 g ai/ha): 100
Pigweed plant response rating ([15]; 125 g ai/ha): 100
Blackgrass plant response rating [16, 18]: 40
Blackgrass plant response rating (0 to 100 scale) ([16]; 125 g ai/ha): 40
